The assay deals with BDF1 mice, P388 leukemia ip, median survival T/C. Put plainly: NCI In Vivo Anticancer Drug Screen. Data for tumor model P388 Leukemia (intraperitoneal) in B6D2F1 (BDF1) mice. Particulars: endpoint: median survival time, higher = longer survival. In outline:
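Transplantable tumour in mice; compound vs vehicle dosing; survival scored; ratio of treated to control reported.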

[1] abbreviates: dose: 50.0 mg/kg/injection, schedule: Q01DX009 (ip), vehicle: Klucel (hydroxypropylcellulose) (HPC).
Setting [2] is: dose: 100.0 mg/kg/injection, schedule: Q04DX003 (ip), vehicle: Klucel (hydroxypropylcellulose) (HPC).
Setting [3] is: dose: 100.0 mg/kg/injection, schedule: Q01DX009 (ip), vehicle: Klucel (hydroxypropylcellulose) (HPC).
Where [4] appears, read: dose: 100.0 mg/kg/injection, schedule: Q01DX009 (ip), vehicle: saline with Tween-80.
Setting [5] is: dose: 200.0 mg/kg/injection, schedule: Q01DX009 (ip), vehicle: saline with Tween-80.
Setting [6] is: dose: 50.0 mg/kg/injection, schedule: Q01DX009 (ip), vehicle: saline with Tween-80.
The mark [7] stands for this setting: dose: 200.0 mg/kg/injection, schedule: Q04DX003 (ip), vehicle: Klucel (hydroxypropylcellulose) (HPC).
[8] abbreviates: dose: 50.0 mg/kg/injection, schedule: Q01DX005 (ip), vehicle: saline with Tween-80.
Setting [9] is: dose: 100.0 mg/kg/injection, schedule: Q01DX005 (ip), vehicle: saline with Tween-80.
The mark [10] stands for this setting: dose: 200.0 mg/kg/injection, schedule: Q01DX005 (ip), vehicle: saline with Tween-80.
Where [11] appears, read: dose: 100.0 mg/kg/injection, schedule: Q01DX001 (ip), vehicle: Klucel (hydroxypropylcellulose) (HPC).
Where [12] appears, read: dose: 4.0 mg/kg/injection, schedule: Q01DX009 (ip), vehicle: saline.
The mark [13] stands for this setting: dose: 200.0 mg/kg/injection, schedule: Q01DX009 (ip), vehicle: Klucel (hydroxypropylcellulose) (HPC).
Setting [14] is: dose: 100.0 mg/kg/injection, schedule: Q01DX009 (ip), vehicle: saline.
The mark [15] stands for this setting: dose: 100.0 mg/kg/injection, schedule: Q04DX003 (ip), vehicle: saline.
[16] abbreviates: dose: 200.0 mg/kg/injection, schedule: Q04DX003 (ip), vehicle: saline.
The mark [17] stands for this setting: dose: 400.0 mg/kg/injection, schedule: Q04DX003 (ip), vehicle: saline.

Structures are written as SMILES. “And” between values parts separate entries of the source, which are not always exact repeats. Equal entries are not always repeated. Toxic doses and inconclusive results are not listed.

On to `CC[n+]1ccc(Cc2ccc([N+](=O)[O-])cc2)cc1`, for which the T/C by setting is: (dose: 25.0 mg/kg/injection, schedule: Q01DX009 (ip), vehicle: Klucel (hydroxypropylcellulose) (HPC)) 104 % of control and 119 % of control; (dose: 25.0 mg/kg/injection, schedule: Q04DX003 (ip), vehicle: Klucel (hydroxypropylcellulose) (HPC)) 100 % of control; under setting [1], 109 % of control; (dose: 50.0 mg/kg/injection, schedule: Q04DX003 (ip), vehicle: Klucel (hydroxypropylcellulose) (HPC)) 100 % of control; under setting [2], 100 % of control.
Regarding `CC(=O)OCCCC/C(=C/c1cc2ccccc2c2ccccc12)[N+](=O)[O-]`, the T/C is 100 % of control under setting [1] and 100 % of control under setting [3].
On to `CC(CC(=N)N)NC(=O)C1CCC(N)=N1` (stereo unspecified), for which the T/C is, setting by setting: (dose: 150.0 mg/kg/injection, schedule: Q01DX009 (ip), vehicle: saline) 98 % of control; (dose: 300.0 mg/kg/injection, schedule: Q01DX009 (ip), vehicle: saline) 98 % of control.
Consider `Nc1nc(N)nc(-c2ccc([N+](=O)[O-])o2)n1`, for which the T/C is, setting by setting: under setting [4], 102 % of control; under setting [5], 96 % of control; (dose: 400.0 mg/kg/injection, schedule: Q01DX009 (ip), vehicle: saline with Tween-80) 106 % of control.
As for `CCCN(CCC)CC(O)c1cc2c(Cl)cc(Cl)cc2c2cc(C(F)(F)F)ccc12` (stereo unspecified), the T/C is, setting by setting: under setting [6], 100 % of control; under setting [4], 100 % of control; under setting [5], 106 % of control.
`CCCCCCCCCCCCCCCC(=O)OCC1OC(CO)(OC2OC(CO)C(O)C(O)C2O)C(O)C1O` (stereo unspecified): the T/C runs as follows: under setting [2], 104 % of control; under setting [7], 112 % of control.
As to `CCOCCOC(=O)Nc1ccc(C)c(NC(=O)OCCOCC)c1`, the T/C reads like this: under setting [6], 93 % of control; under setting [4], 90 % of control; under setting [5], 100 % of control.
`C1CC[N-]CC1.C1CC[N-]CC1.C1CC[N-]CC1.C1CC[N-]CC1.[Cl][Rh][Cl]`: the T/C (dose: 12.5 mg/kg/injection, schedule: Q04DX003 (ip), vehicle: saline) is 118 % of control.
`O=C(O)C1CCCN1C(=O)c1ccc(Cl)c(Cl)c1` (stereo unspecified): the T/C is 100 % of control under setting [8], 93 % of control under setting [9] and 99 % of control under setting [10].
As for `C/C=C1\CN2CCc3c([nH]c4ccccc34)C2CC1Cc1nccc2c1[nH]c1ccccc12` (stereo unspecified), the T/C was 98 % of control (dose: 1.0 mg/kg/injection, schedule: Q04DX003 (ip), vehicle: saline); 102 % of control (dose: 2.0 mg/kg/injection, schedule: Q04DX003 (ip), vehicle: saline); 102 % of control (dose: 4.0 mg/kg/injection, schedule: Q04DX003 (ip), vehicle: saline); 107 % of control (dose: 6.0 mg/kg/injection, schedule: Q04DX003 (ip), vehicle: saline); 103 % of control (dose: 12.0 mg/kg/injection, schedule: Q04DX003 (ip), vehicle: saline); 100 % of control (dose: 24.0 mg/kg/injection, schedule: Q04DX003 (ip), vehicle: saline). Also, for the setting “dose: 48.0 mg/kg/injection, schedule: Q04DX003 (ip), vehicle: saline”, the T/C was 100 % of control.
Regarding `CCCCNP(=O)(N1CC1)N1CC1`, the T/C is, setting by setting: (dose: 8.0 mg/kg/injection, schedule: Q04DX003 (ip), vehicle: saline with Tween-80) 116 % of control; (dose: 8.25 mg/kg/injection, schedule: Q04DX003 (ip), vehicle: saline with Tween-80) 154 % of control; (dose: 12.0 mg/kg/injection, schedule: Q04DX003 (ip), vehicle: saline with Tween-80) 100 % of control; (dose: 12.5 mg/kg/injection, schedule: Q04DX003 (ip), vehicle: saline with Tween-80) 190 % of control; (dose: 18.75 mg/kg/injection, schedule: Q04DX003 (ip), vehicle: saline with Tween-80) 218 % of control.
For `CC1(C)CS(=O)(=O)CC1=O`, the T/C runs as follows: (dose: 25.0 mg/kg/injection, schedule: Q01DX001 (ip), vehicle: Klucel (hydroxypropylcellulose) (HPC)) 100 % of control; (dose: 50.0 mg/kg/injection, schedule: Q01DX001 (ip), vehicle: Klucel (hydroxypropylcellulose) (HPC)) 100 % of control; under setting [11], 90 % of control and 104 % of control.
As to `NC(=S)c1ccc[n+](Cc2c(Cl)cccc2Cl)c1`, the T/C by setting is: (dose: 50.0 mg/kg/injection, schedule: Q04DX002 (ip), vehicle: saline with Tween-80) 110 % of control; (dose: 100.0 mg/kg/injection, schedule: Q04DX002 (ip), vehicle: saline with Tween-80) 101 % of control.
As to `CCCCCCCCCCCCCCCCCC[N+](C)(C)C` (tested in a mixture with another compound), the T/C was 109 % of control (dose: 1.0 mg/kg/injection, schedule: Q01DX009 (ip), vehicle: saline); 113 % of control (dose: 2.0 mg/kg/injection, schedule: Q01DX009 (ip), vehicle: saline); 118 % of control under setting [12].
Turning to `C#CCCOC(=O)Nc1ccccc1`, the T/C reads like this: under setting [3], 100 % of control; under setting [13], 90 % of control; (dose: 400.0 mg/kg/injection, schedule: Q01DX009 (ip), vehicle: Klucel (hydroxypropylcellulose) (HPC)) 90 % of control.
As for `CC(C(O)c1ccc(Br)cc1)C(O)(C(F)(F)F)C(F)(F)F` (stereo unspecified), the T/C is, setting by setting: (dose: 100.0 mg/kg/injection, schedule: Q04DX003 (ip), vehicle: other) 100 % of control; (dose: 200.0 mg/kg/injection, schedule: Q04DX003 (ip), vehicle: other) 100 % of control; (dose: 400.0 mg/kg/injection, schedule: Q04DX003 (ip), vehicle: other) 100 % of control.
In the case of `Cc1ccccc1C(c1ccccc1C)c1ccccc1C(=O)O`, the T/C was 113 % of control under setting [11]; 100 % of control under setting [14]; 91 % of control under setting [15]; 109 % of control (dose: 200.0 mg/kg/injection, schedule: Q01DX001 (ip), vehicle: Klucel (hydroxypropylcellulose) (HPC)); 104 % of control (dose: 200.0 mg/kg/injection, schedule: Q01DX009 (ip), vehicle: saline); 100 % of control under setting [16]. Moreover, the T/C reads like this: (dose: 400.0 mg/kg/injection, schedule: Q01DX001 (ip), vehicle: Klucel (hydroxypropylcellulose) (HPC)) 109 % of control; (dose: 400.0 mg/kg/injection, schedule: Q01DX009 (ip), vehicle: saline) 95 % of control; under setting [17], 100 % of control.
As to `O=C(O)C1CCC[N-]C1.O=C(O)C1CCC[N-]C1.O=C(O)C1CCC[N-]C1.O=C(O)C1CCC[N-]C1.[Cl][Rh][Cl]` (stereo unspecified), the T/C is 100 % of control under setting [12]; 99 % of control (dose: 8.0 mg/kg/injection, schedule: Q01DX009 (ip), vehicle: saline); 118 % of control (dose: 10.0 mg/kg/injection, schedule: Q01DX009 (ip), vehicle: saline); 93 % of control (dose: 16.0 mg/kg/injection, schedule: Q01DX009 (ip), vehicle: saline); 98 % of control (dose: 20.0 mg/kg/injection, schedule: Q01DX009 (ip), vehicle: saline); 98 % of control (dose: 40.0 mg/kg/injection, schedule: Q01DX009 (ip), vehicle: saline). Further, the T/C was 100 % of control (dose: 50.0 mg/kg/injection, schedule: Q01DX009 (ip), vehicle: saline); 86 % of control under setting [14]; 100 % of control under setting [15]; 108 % of control under setting [16]; 102 % of control under setting [17].
Regarding `CCOC(=O)Cn1nc(-c2ccc([N+](=O)[O-])o2)oc1=O`, the T/C is 97 % of control under setting [6], 95 % of control under setting [4] and 103 % of control under setting [5].
In the case of `CCC(C)C(NS(=O)(=O)c1ccc(C)cc1)C(=O)O` (stereo unspecified), the T/C runs as follows: under setting [8], 96 % of control; under setting [9], 102 % of control; under setting [10], 112 % of control.
Take `C[C@]12CC[C@@H]3c4ccc(O)cc4CC[C@H]3[C@@H]1CCC(=O)O2`: the T/C by setting is: under setting [3], 91 % of control; under setting [2], 104 % of control; under setting [13], 91 % of control; under setting [7], 90 % of control; (dose: 400.0 mg/kg/injection, schedule: Q04DX003 (ip), vehicle: Klucel (hydroxypropylcellulose) (HPC)) 100 % of control.

The record behind these values is PubChem BioAssay AID328 (DTP/NCI, 2004).
